Assay results taken from US20250223610A1, “MEASUREMENT OF SOMATIC L1 RETROTRANSPOSITION ACTIVITY” (SZEGEDI BIOLÓGIAI KUTATÓKÖZPONT, priority 2022, published 2025).
“Also recorded” adds a separate entry of the source.

Experiments:
[1] = tested on: somatic L1 retrotransposition; assay: SYBR Green-based intronless EGFP qPCR on liver DNA of ORFeus reporter bearing Fah-/- mice; type: in vivo; settings: 1 mg/kg IP twice weekly from NTBC withdrawal; liver samples after three months; preliminary results
Text: Multiple qPCR-based methods have already been published offering the possibility to measure the amount of intron-free EGFP copies produced during retrotransposition of the ORFeus reporter (Mita, Sun et al. 2020). Based on these published methods, we have also started to quantify our results.
NTBC was withdrawn after hydrodynamic plasmid delivery.
To measure the retrotransposition events of the synthetic L1 element we carried out genomic exon-exon junction qPCR analysis of the spliced, intronless EGFP using two different qPCR detection chemistry. SYBR Green based qPCR was done using PerfeCTa SYBR Green SuperMix (Quantabio). Cycling conditions were as follows: 95° C. for 7 min, 4 cycles of 10 s at 95° C., 15 s at 66° C. (−1° C./cycle, no acquisition), followed by 40 cycles of 5 s at 95° C., 10 s at 62° C. The following primers were used: […]
Probe-based qPCR detection was done as previously described (Mita, Sun et al. 2020) using PerfeCTa qPCR ToughMix (Quantabio). All qPCR reactions were performed on a Rotor-Gene Q instrument (Qiagen) in triplicates using 87 ng of gDNA. Analysis was carried out with the Rotor-Gene Q software (Qiagen). Relative changes in expression levels were calculated using the ΔCT method (Livak and Schmittgen 2001) SYBR Green and probe-based qPCR results were normalized to measurements of the Olfr16 and Rpl21 internal control genes, respectively.

[2] = tested on: somatic L1 retrotransposition; assay: FACS measurement of EGFP-positive hepatocytes isolated from ORFeus carrying Fah-/- mice; settings: 1 million hepatocytes per sample; Decitabine 1 mg/kg IP twice weekly
Experimental: For evaluating alternative detection methods we investigated the outcome of Decitabine (5-aza-2′-deoxycytidine) treatments in the assay of the invention. 10 Fah^−/− animals were injected hydrodynamically and after NTBC withdrawal, 5 were started on Decitabine and 5 animals were kept without drug treatment as a control group. Under our current drug treatment regime administration of drugs starts at the same time as NTBC withdrawal.
To test this approach, 2-2 animals from Decitabine-treated and control experimental groups were subjected to liver perfusion and hepatocyte isolation.
Mice were housed under 12 h light-dark cycle at 22° C. with free access to water and regular rodent chow. […] Fah^−/− mice were treated with 8 mg/l Orfadin® (Nitisinone, NTBC) (Swedish Orphan Biovitrum) in drinking water. NTBC was withdrawn after hydrodynamic plasmid delivery. […] Dosing, scheduling, and the route of administration of all drugs and chemical compounds were determined according to the manufacturer's instructions and literature data. […] The body weight of the mice was monitored continuously. […]
Procurement of liver for hepatocyte isolation was done under sodium pentobarbital (Nembutal) (Sigma Aldrich) anaesthesia. […] Cell numbers were determined using a Burker chamber. Cell viability was determined by trypan blue exclusion test. […]

[3] = tested on: somatic L1 retrotransposition; assay: Stereomicroscopic macrovisualization of EGFP positive hepatocyte colonies in liver of Fah-/- mice carrying the ORFeus reporter; type: in vivo; settings: 5 mg/kg IP twice weekly from NTBC withdrawal; livers examined after 3 months
Text: In these proof of concept studies the present inventors have used an L1-ORF2-free ORFeus and amiR-free construct variant (shown in FIG. 3B). First, the ORFeus-expressing transposon and the hyperPB transposase helper plasmid were co-delivered hydrodynamically into the liver of Fah^−/− mice, then the curative drug nitisinone (NTBC) was withdrawn (FIG. 2A). In those hepatocytes where hydrodynamic transfection is successful, the hyperactive transposase helper enzyme is likely to catalyse the “cut and paste” transposition reaction presumably leading to an integration into the host chromosomes (Skipper, Andersen et al. 2013).
FICZ was administered by intraperitoneal (IP) injection at a dose of 5 mg/kg body weight twice weekly. […]
The results of EGFP macrovisualization were summarized in FIG. 5 for the control, FICZ-treated and MeIQx-treated experimental groups. The number of EGFP-positive hepatocyte cell colonies detectable by stereomicroscopy in the liver of each animal was counted and per-animal values were plotted on a box diagram. […]
Pictures of whole mouse livers were taken with an Olympus SZX12 fluorescence stereozoom microscope equipped with a 100 W mercury lamp and filter sets for selective excitation and emission of GFP and mCherry.

[4] = tested on: Tp53 gene; assay: Tp53 silencing by amiR element; set-up: species or system mouse
Text: For example, silencing of the Tp53 gene can attenuate the P53 L1 sensor (Ardeljan, Steranka et al. 2020) (FIG. 1B), without completely inactivating it. Such an effect is predicted to increase the tolerance of somatic cells to ORFeus reporter expression. We have developed three efficient Tp53 silencing amiR elements. Of these, amiR-mP53/1 capable to produce approximately 20% remaining Tp53 gene expression is currently being tested in our laboratory. Presumably, it will be able to increase the sensitivity of the somatic L1 activity measuring system. However, its application is not essential. Our results so far, at least in our in vivo system, are in conflict with the finding of the authors describing the role of the P53 sensor stating that wild-type retinal pigment epithelium-1 (RPE) cells undergo a TP53-dependent growth arrest in response to L1 (Ardeljan, Steranka et al. 2020). In contrast, ORFeus expressing mouse liver cells are able to regenerate the liver in the absence of p53 silencing (FIG. 3B).

Molecule: Nc1ncn([C@H]2C[C@H](O)[C@@H](CO)O2)c(=O)n1 [Decitabine, 5-aza-2′-deoxycytidine]
- induction of somatic L1 retrotransposition (amount of intron-free EGFP copies, normalized to Olfr16) [1]: weak inducer
- number of EGFP-expressing cells by FACS compared to controls [2]: higher number; also recorded: confirmed the results obtained with qPCR

Molecule: O=Cc1c2c(cc3c1=Nc1ccccc1-3)=Nc1ccccc1-2 [FICZ, 6-Formylindolo[3,2-b]carbazole]
- number of EGFP fluorescent (ORFeus retrotransposition bearing) hepatocyte colonies in liver as compared to non-drug-treated controls [3]: more EGFP fluorescent colonies; also recorded: higher number

Molecule: Cc1cnc2ccc3c(nc(N)n3C)c2n1 [MeIQx, 2-Amino-3,8-Dimethylimidazo[4,5.f]Quinoxaline]
- number of EGFP fluorescent (ORFeus retrotransposition bearing) hepatocyte colonies in liver as compared to non-drug-treated controls [3]: higher number

B1: amiR-mP53/1: Tp53 silencing artificial microRNA (amiR) element, SEQ ID NO: 19 (nucleic acid)
DNA: GGGCCCGTGTACCGGTGTGTGAGCTCTGTTTGAATGAGGCTTCAGTACTTTACAGAATCGTTGCCTGCACATCTTGGAAACACTTGCTGGGATTACTTCTTCAGGTTAACCCAACAGAAGGCTCGAGAAGGTATATTGCTGTTGACAGTGAGCGATCACTGCATGGACGATCTGTTTAGTGAAGCCACAGATGTAAACAGATCGTCCATGCAGTGAGTGCCTACTGCCTCGGACTTCAAGGGGCTACTTTAGGAGCAATTATCTTGTTTACTAAAACTGAATACCTTGCTATCTCTTTGATACATTTTTACAAAGCTGAATTAAAATGGTATAAATTAAATCACTTTGTCGACGTGTTCTAGAGTGTGCCGGC
modifications: misc_feature 27..121 Endogenous miR30a 5' flanking; misc_feature 155..176 Target with N1 A mismatch; stem_loop 177..195 loop; misc_feature 196..217 guide; misc_feature 238..347 Endogenous miR30a 3' flanking; amiR-mP53/1 element
- remaining Tp53 gene expression [4]: approximately 20%
